Measurements published in PubChem BioAssay AID330 (DTP/NCI, 2004).
“And” between values parts separate entries of the source, which are not always exact repeats. Identical values can stand only once. Toxic doses and inconclusive results are not listed. How the source made its calls: active means survival T/C of 150% or more; inactive means T/C below 125% in these data.

System: P388 leukemia ip, CD2F1 mice, survival T/C
Test: NCI In Vivo Anticancer Drug Screen. Data for tumor model P388 Leukemia (intraperitoneal) in CD2F1 (CDF1) mice
Settings: endpoint: median survival time, higher = longer survival
In short: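 Mice carrying the transplanted tumor received test compound or vehicle. Survival was recorded in each group, and the value is the treated-group measurement divided by that of the vehicle-treated control group.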

[1] = dose: 12.5 mg/kg/injection, schedule: Q01DX009 (ip), vehicle: saline
[2] = dose: 25.0 mg/kg/injection, schedule: Q01DX009 (ip), vehicle: saline
[3] = dose: 50.0 mg/kg/injection, schedule: Q01DX009 (ip), vehicle: saline with Tween-80
[4] = dose: 50.0 mg/kg/injection, schedule: Q01DX009 (ip), vehicle: saline
[5] = dose: 200.0 mg/kg/injection, schedule: Q01DX009 (ip), vehicle: saline with Tween-80
[6] = dose: 100.0 mg/kg/injection, schedule: Q01DX009 (ip), vehicle: saline
[7] = dose: 200.0 mg/kg/injection, schedule: Q01DX009 (ip), vehicle: saline
[8] = dose: 6.25 mg/kg/injection, schedule: Q01DX009 (ip), vehicle: Klucel (hydroxypropylcellulose) (HPC)
[9] = dose: 12.5 mg/kg/injection, schedule: Q01DX009 (ip), vehicle: Klucel (hydroxypropylcellulose) (HPC)
[10] = dose: 25.0 mg/kg/injection, schedule: Q01DX009 (ip), vehicle: Klucel (hydroxypropylcellulose) (HPC)
[11] = dose: 50.0 mg/kg/injection, schedule: Q01DX009 (ip), vehicle: Klucel (hydroxypropylcellulose) (HPC)
[12] = dose: 60.0 mg/kg/injection, schedule: Q01DX005 (ip), vehicle: saline with Tween-80
[13] = dose: 120.0 mg/kg/injection, schedule: Q01DX005 (ip), vehicle: saline with Tween-80
[14] = dose: 240.0 mg/kg/injection, schedule: Q01DX005 (ip), vehicle: saline with Tween-80
[15] = dose: 50.0 mg/kg/injection, schedule: Q01DX005 (ip), vehicle: Klucel (hydroxypropylcellulose) (HPC)
[16] = dose: 100.0 mg/kg/injection, schedule: Q01DX005 (ip), vehicle: Klucel (hydroxypropylcellulose) (HPC)
[17] = dose: 200.0 mg/kg/injection, schedule: Q01DX005 (ip), vehicle: Klucel (hydroxypropylcellulose) (HPC)
[18] = dose: 50.0 mg/kg/injection, schedule: Q01DX005 (ip), vehicle: saline
[19] = dose: 100.0 mg/kg/injection, schedule: Q01DX005 (ip), vehicle: saline
[20] = dose: 60.0 mg/kg/injection, schedule: Q01DX005 (ip), vehicle: Klucel (hydroxypropylcellulose) (HPC)
[21] = dose: 120.0 mg/kg/injection, schedule: Q01DX005 (ip), vehicle: Klucel (hydroxypropylcellulose) (HPC)
[22] = dose: 25.0 mg/kg/injection, schedule: Q01DX009 (ip), vehicle: saline with Tween-80
[23] = dose: 100.0 mg/kg/injection, schedule: Q01DX009 (ip), vehicle: saline with Tween-80
[24] = dose: 100.0 mg/kg/injection, schedule: Q01DX009 (ip), vehicle: Klucel (hydroxypropylcellulose) (HPC)
[25] = dose: 240.0 mg/kg/injection, schedule: Q01DX005 (ip), vehicle: Klucel (hydroxypropylcellulose) (HPC)

Measured: T/C

CCCCCCCCCCCCCCCCN1C(=O)/C(=C\c2ccc(O)cc2)SC1=Nc1ccccc1
inactive: [1] 90 % of control | [2] 88 % of control | [3] 95 % of control | [4] 91 % of control | [5] 92 % of control

Sc1ccccc1N=Cc1ccc(C=Nc2ccccc2S)cc1
inactive: [4] 98 % of control | [6] 99 % of control | [7] 97 % of control

CN(C)c1ccc(/C=C/c2ccnc3ccccc23)cc1N
inactive: [8] 98 % of control | [9] 93 % of control | [10] 90 % of control | [11] 109 % of control

Clc1ccc(-c2nnc(-c3ccncc3)o2)c(Cl)c1
inactive: [12] 93 % of control | [13] 93 % of control | [14] 86 % of control

COC(=O)Cc1nc2c(=O)[nH]c(N)nc2[nH]c1=O
inactive: dose: 12.5 mg/kg/injection, schedule: Q01DX005 (ip), vehicle: Klucel (hydroxypropylcellulose) (HPC) 95 % of control | dose: 25.0 mg/kg/injection, schedule: Q01DX005 (ip), vehicle: Klucel (hydroxypropylcellulose) (HPC) 96 % of control | [15] 102 % of control and 104 % of control

CCOC(=O)C1Cc2c([nH]c(=O)[nH]c2=O)OC1c1ccc(OC)cc1 (stereo not drawn)
inactive: [15] 97 % of control | [16] 100 % of control | [17] 97 % of control

CC(CN(C)C)OC(=O)c1ccc(Cl)cc1Cl (stereo not drawn)
inactive: [18] 100 % of control | [19] 98 % of control | dose: 200.0 mg/kg/injection, schedule: Q01DX005 (ip), vehicle: saline 100 % of control

COC(=O)c1nc(N)nc(C(=O)OC)c1C(=O)c1ccc(Cl)cc1
inactive: [20] 103 % of control | [21] 101 % of control

O=C(O)COc1ccc(-c2ccc(Br)cc2)cc1
inactive: dose: 12.5 mg/kg/injection, schedule: Q01DX009 (ip), vehicle: saline with Tween-80 91 % of control | [22] 97 % of control | [3] 103 % of control

CCOC(=O)c1cc([N+](=O)[O-])c(C)n1C
inactive: [3] 98 % of control | [23] 102 % of control | [5] 96 % of control

S=C(NCCN1CCN2Cc3[nH]c4ccccc4c3CC2C1)Nc1ccccc1 (stereo not drawn)
inactive: dose: 50.0 mg/kg/injection, schedule: Q01DX005 (ip), vehicle: saline with Tween-80 94 % of control | dose: 100.0 mg/kg/injection, schedule: Q01DX005 (ip), vehicle: saline with Tween-80 91 % of control | dose: 200.0 mg/kg/injection, schedule: Q01DX005 (ip), vehicle: saline with Tween-80 102 % of control

CCCCCCCCCCCCCCOC(=O)c1ccc(O)cc1
inactive: [11] 94 % of control | [24] 101 % of control | dose: 200.0 mg/kg/injection, schedule: Q01DX009 (ip), vehicle: Klucel (hydroxypropylcellulose) (HPC) 89 % of control

Cc1cncn2c(C)nnc12
inactive: dose: 100.0 mg/kg/injection, schedule: Q04DX003 (ip), vehicle: saline 100 % of control | dose: 200.0 mg/kg/injection, schedule: Q04DX003 (ip), vehicle: saline 104 % of control

N#C/C(=C\C=C\c1ccccc1)c1nc(-c2ccc(Cl)cc2)cs1
inactive: [4] 91 % of control | [6] 91 % of control | [7] 88 % of control

CCCCCCCCCCCCCCCCCCOC(=O)C1CCCN1 (stereo not drawn)
inactive: dose: 100.0 mg/kg/injection, schedule: Q04DX002 (ip), vehicle: Klucel (hydroxypropylcellulose) (HPC) 101 % of control | dose: 200.0 mg/kg/injection, schedule: Q04DX002 (ip), vehicle: Klucel (hydroxypropylcellulose) (HPC) 99 % of control | dose: 400.0 mg/kg/injection, schedule: Q04DX002 (ip), vehicle: Klucel (hydroxypropylcellulose) (HPC) 94 % of control

COc1cc2c(C)c3ccccc3c(C)c2c2ccccc12
inactive: dose: 100.0 mg/kg/injection, schedule: Q01DX001 (ip), vehicle: Klucel (hydroxypropylcellulose) (HPC) 101 % of control | dose: 200.0 mg/kg/injection, schedule: Q01DX001 (ip), vehicle: Klucel (hydroxypropylcellulose) (HPC) 110 % of control | dose: 400.0 mg/kg/injection, schedule: Q01DX001 (ip), vehicle: Klucel (hydroxypropylcellulose) (HPC) 105 % of control

O=Nc1c[nH]c(=O)[nH]c1=O
inactive: [4] 97 % of control | [6] 98 % of control | [7] 100 % of control

CCOC(CCl)OCC
inactive: dose: 6.25 mg/kg/injection, schedule: Q01DX009 (ip), vehicle: saline 103 % of control and 105 % of control

Oc1ccccc1-c1cc(-c2ccccc2)nc(NCCCNc2nc(-c3ccccc3)cc(-c3ccccc3O)n2)n1
inactive: [15] 92 % of control | [16] 88 % of control | [17] 86 % of control

CN(C)CCNCCN
inactive: [18] 96 % of control | [19] 99 % of control

CC1=NC(C)(CO)CO1 (stereo not drawn)
inactive: [4] 111 % of control | [6] 111 % of control | [7] 108 % of control | dose: 400.0 mg/kg/injection, schedule: Q01DX009 (ip), vehicle: saline 105 % of control

COC(=O)c1nc(=S)[nH]c(C(=O)OC)c1C(=O)c1ccccc1
inactive: dose: 60.0 mg/kg/injection, schedule: Q01DX005 (ip), vehicle: Klucel + Tween-80 101 % of control | dose: 120.0 mg/kg/injection, schedule: Q01DX005 (ip), vehicle: Klucel + Tween-80 93 % of control | dose: 240.0 mg/kg/injection, schedule: Q01DX005 (ip), vehicle: Klucel + Tween-80 92 % of control

CC(=O)N(C)N=Nc1ccc(C)cc1
inactive: [4] 100 % of control and 121 % of control and 123 % of control | [6] 100 % of control and 118 % of control and 121 % of control

CC(C#N)(S(C)(=O)=O)S(=O)(=O)c1ccccc1 (stereo not drawn)
inactive: dose: 1.56 mg/kg/injection, schedule: Q01DX001 (ip), vehicle: saline with Tween-80 96 % of control | dose: 3.12 mg/kg/injection, schedule: Q01DX001 (ip), vehicle: saline with Tween-80 99 % of control | dose: 6.25 mg/kg/injection, schedule: Q01DX001 (ip), vehicle: saline with Tween-80 102 % of control

CC(C)=CCCC(=O)Cc1nc2nnc(N)n2nc1CC(=O)CCC=C(C)C
inactive: dose: 60.0 mg/kg/injection, schedule: Q01DX005 (ip), vehicle: saline 100 % of control | dose: 120.0 mg/kg/injection, schedule: Q01DX005 (ip), vehicle: saline 98 % of control | dose: 240.0 mg/kg/injection, schedule: Q01DX005 (ip), vehicle: saline 104 % of control

CCCCCCCCCC[N+]1([O-])CCCCCC1
inactive: [1] 100 % of control | [2] 106 % of control | [4] 94 % of control

S=C(Nc1ccccc1)Nc1ncn[nH]1
inactive: [15] 101 % of control | [16] 100 % of control | [17] 99 % of control

CC(Nc1ncccn1)Nc1ncccn1
inactive: [20] 107 % of control | [21] 102 % of control | [25] 111 % of control

COC(=O)/C=C/N1CCCC1
inactive: [22] 101 % of control | [3] 108 % of control | [23] 101 % of control | [5] 92 % of control

N#CC1CSCC1=O (stereo not drawn)
inactive: [22] 103 % of control | [3] 100 % of control | [23] 99 % of control

CC1(C)N=C(N/N=C/c2ccccc2)SP1(=O)NNc1ncccn1 (stereo not drawn)
inactive: [20] 101 % of control | [21] 103 % of control

Cc1ccc(NC(=O)NC(=O)CCl)cc1
inactive: [8] 105 % of control | [9] 99 % of control | [10] 101 % of control and 105 % of control | [22] 92 % of control | [11] 104 % of control and 108 % of control and 113 % of control | [24] 123 % of control | [23] 106 % of control

NC(=S)N/N=C/C=N/NC(N)=S
inactive: [4] 92 % of control | [6] 90 % of control | [7] 101 % of control

N#Cc1cc(Cl)ccc1[N+](=O)[O-]
inactive: [3] 102 % of control | [23] 103 % of control

O=C(Nc1cccc(Cl)c1)Sc1c(Cl)c(Cl)c(Cl)c(Cl)c1Cl
inactive: [3] 106 % of control | [23] 109 % of control | [5] 112 % of control

CC1=CC(=O)C(O)C2(C)C(CCC3(C)OCCO3)C=C(O[Si](C)(C)C(C)(C)C)CC12 (stereo not drawn)
inactive: [12] 96 % of control | [13] 96 % of control | [14] 100 % of control

COc1ccc(C2OC3=C(Nc4ccc(Cl)cc4N3)C2=O)cc1 (stereo not drawn)
inactive: dose: 30.0 mg/kg/injection, schedule: Q01DX005 (ip), vehicle: Klucel (hydroxypropylcellulose) (HPC) 98 % of control | [20] 94 % of control | [21] 93 % of control and 97 % of control | [25] 98 % of control
